Each structure is given as a SMILES string.

This test deals with T1, hGOAT (Homo sapiens, UniProt Q96T53).
T1 construct: expressed in transfected cells; host or cells: HEK293 (Hek293 hGOAT/PPGhrl Clone #1B8)
T1 sequence (Q96T53 1-435): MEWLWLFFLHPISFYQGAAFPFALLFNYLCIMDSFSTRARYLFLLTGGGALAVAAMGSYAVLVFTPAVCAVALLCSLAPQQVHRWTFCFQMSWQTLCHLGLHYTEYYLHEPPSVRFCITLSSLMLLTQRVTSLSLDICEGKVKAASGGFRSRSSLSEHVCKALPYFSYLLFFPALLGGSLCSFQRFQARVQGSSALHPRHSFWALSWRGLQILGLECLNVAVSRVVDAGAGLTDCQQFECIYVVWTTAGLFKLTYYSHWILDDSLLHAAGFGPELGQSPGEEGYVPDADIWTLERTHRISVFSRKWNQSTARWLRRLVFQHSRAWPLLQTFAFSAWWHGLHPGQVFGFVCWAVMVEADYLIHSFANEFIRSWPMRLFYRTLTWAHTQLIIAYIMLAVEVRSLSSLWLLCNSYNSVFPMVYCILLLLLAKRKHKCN
In words: Determination of hGOAT activity in HEK293 cells after incubation with test compound (acyl-ghrelin ELISA). Format: cell-based. The conditions noted are these: HEK293 cells stably transfected with preproghrelin and human GOAT; octanoate-BSA 100 μM; 5 hours incubation; acyl-ghrelin in medium by ELISA; 8 compound concentrations. Background: In an ELISA, binding on a coated surface is turned into a signal by an enzyme label.
The IC50 is the point on the concentration scale where inhibition reaches its midpoint. Read a high IC50 as weaker potency in that assay. As to `Cc1nc2nonc2c(N)c1Cc1ccc(Br)c(C#N)c1` [Compound 4.61, 5-({7-Amino-5-methyl-[1,2,5]oxadiazolo[3,4-b]pyridin-6-yl}methyl)-2-bromobenzonitrile], half-maximal inhibition (IC50) required 0.542 nM.

`Cc1nc2nonc2c(N)c1Cc1ccc(C2(C(=O)O)CC2)nc1` [Compound 19.2, 1-[5-({7-Amino-5-methyl-[1,2,5]oxadiazolo[3,4-b]pyridin-6-yl}methyl)pyridin-2-yl]cyclopropane-1-carboxylic Acid] had an IC50 of 8.42 nM.

The compound `Cc1nc2nonc2c(N)c1Cc1ccc(C2(C#N)CCOCC2)nc1` [Compound 4.27, 4-[5-({7-Amino-5-methyl-[1,2,5]oxadiazolo[3,4-b]pyridin-6-yl}methyl)pyridin-2-yl]oxane-4-carbonitrile] displayed an IC50 of 1.65 nM.

Turning to `Cc1nc2nonc2c(N)c1Cc1ccc(C#N)cc1` [Compound 2.8, 4-({7-Amino-5-methyl-[1,2,5]oxadiazolo[3,4-b]pyridin-6-yl}methyl)benzonitrile], it took 0.416 nM to reach half-maximal inhibition (IC50). Against the preceding compound, the IC50 is about 4-fold lower.

`Nc1c(Cc2ccc(Br)cc2)c(Cl)nc2nonc12` [Compound 23.1, 6-[(4-Bromophenyl)methyl]-5-chloro-[1,2,5]oxadiazolo[3,4-b]pyridin-7-amine]: the IC50 is 0.485 nM.

Take `Cc1nc2nonc2c(N)c1Cc1ccc(Cl)c(Cl)c1` [Compound 4.1, 6-[(3,4-Dichlorophenyl)methyl]-5-methyl-[1,2,5]oxadiazolo[3,4-b]pyridin-7-amine]: the IC50 came out at 0.246 nM. Compared with the last compound, the IC50 is about 2-fold lower.

Regarding `Cc1nc2nonc2c(N)c1Cc1ccc(OCC2(C)COC2)nc1` [Compound 21.11, 5-Methyl-6-({6-[(3-methyloxetan-3-yl)methoxy]pyridin-3-yl}methyl)-[1,2,5]oxadiazolo[3,4-b]pyridin-7-amine], the IC50 stood at 1.92 nM.

In the case of `Cc1nc2nonc2c(N)c1Cc1ccc(-c2ccsc2C#N)n2cnnc12` [Compound 12.12, 3-[8-({7-Amino-5-methyl-[1,2,5]oxadiazolo[3,4-b]pyridin-6-yl}methyl)-[1,2,4]triazolo[4,3-a]pyridin-5-yl]thiophene-2-carbonitrile], 1.25 nM corresponded to half-maximal inhibition (IC50).

`Cc1nc2nonc2c(N)c1Cc1cccc(OC(F)(F)F)c1` [Compound 4.41, 5-Methyl-6-{[3-(trifluoromethoxy)phenyl]methyl}-[1,2,5]oxadiazolo[3,4-b]pyridin-7-amine] returned an IC50 of 0.428 nM.

The compound `Cc1nc2nonc2c(N)c1Cc1ccc(C#N)c(OC(F)(F)F)c1` [Compound 4.43, 4-({7-Amino-5-methyl-[1,2,5]oxadiazolo[3,4-b]pyridin-6-yl}methyl)-2-(trifluoromethoxy)benzonitrile] came in with an IC50 of 0.052 nM. Against the preceding compound, the IC50 is about 8.2-fold lower.

Turning to `Cc1nc2nonc2c(N)c1Cc1ccc(OC(F)(F)F)cc1` [Compound 1.2, 5-Methyl-6-{[4-(trifluoromethoxy)phenyl]methyl}-[1,2,5]oxadiazolo[3,4-b]pyridin-7-amine], the IC50 was 0.387 nM.

`Cc1nc2nonc2c(N)c1Cc1ccc(Br)c(C(N)=O)c1` [Compound 19.5, 5-({7-Amino-5-methyl-[1,2,5]oxadiazolo[3,4-b]pyridin-6-yl}methyl)-2-bromobenzamide] showed an IC50 of 2.22 nM.

`COC(=O)c1cn2cc(Cc3c(C)nc4nonc4c3N)ccc2n1` [Compound 4.23, Methyl 6-({7-amino-5-methyl-[1,2,5]oxadiazolo[3,4-b]pyridin-6-yl}methyl)imidazo[1,2-a]pyridine-2-carboxylate] gave an IC50 of 7.76 nM. This IC50 is about 3.5-fold higher than that of the compound before.

Turning to `Cc1nc2nonc2c(N)c1Cc1ccc(OC(F)F)nc1` [Compound 4.16, 6-{[6-(Difluoromethoxy)pyridin-3-yl]methyl}-5-methyl-[1,2,5]oxadiazolo[3,4-b]pyridin-7-amine], 0.642 nM corresponded to half-maximal inhibition (IC50).

In the case of `Cc1nc2nonc2c(N)c1Cc1ccc(F)nc1` [Compound 4.4, 6-[(6-Fluoropyridin-3-yl)methyl]-5-methyl-[1,2,5]oxadiazolo[3,4-b]pyridin-7-amine], 4.06 nM corresponded to half-maximal inhibition (IC50).

Regarding `Cc1nc2nonc2c(N)c1Cc1cnc(Cl)c(C(F)(F)F)c1` [Compound 25.4, 6-{[6-chloro-5-(trifluoromethyl)pyridin-3-yl]methyl}-5-methyl-[1,2,5]oxadiazolo[3,4-b]pyridin-7-amine], the IC50 was determined as 1.35 nM.

As to `Cc1nc2nonc2c(N)c1Cc1ccc(C(=O)Nc2cn(C)nc2C(F)(F)F)cc1` [Compound 14.7, 4-({7-Amino-5-methyl-[1,2,5]oxadiazolo[3,4-b]pyridin-6-yl}methyl)-N-[1-methyl-3-(trifluoromethyl)-1H-pyrazol-4-yl]benzamide], the midpoint of inhibition, the IC50, lay at 1.83 nM.

`CNC(=O)c1ccc(Cc2c(C)nc3nonc3c2N)cc1` [Compound 14.18, 4-({7-Amino-5-methyl-[1,2,5]oxadiazolo[3,4-b]pyridin-6-yl}methyl)-N-methylbenzamide] showed an IC50 of 7.77 nM.

On to `Cc1nc2nonc2c(N)c1Cc1ccc(F)c(C(N)=O)c1` [Compound 19.6, 5-({7-Amino-5-methyl-[1,2,5]oxadiazolo[3,4-b]pyridin-6-yl}methyl)-2-fluorobenzamide], for which inhibition was half-maximal at 2.06 nM (IC50). This IC50 lies about 3.8-fold lower than the previous one.

Compound `Cc1nc2nonc2c(N)c1Cc1ccc(C(=O)NCc2ccnnc2)cc1` [Compound 14.14, 4-({7-Amino-5-methyl-[1,2,5]oxadiazolo[3,4-b]pyridin-6-yl}methyl)-N-[(pyridazin-4-yl)methyl]benzamide] displayed an IC50 of 5.55 nM.

In the case of `COc1cc(C(F)(F)F)ccc1Cc1c(C)nc2nonc2c1N` [Compound 2.2, 6-{[2-Methoxy-4-(trifluoromethyl)phenyl]methyl}-5-methyl-[1,2,5]oxadiazolo[3,4-b]pyridin-7-amine], the IC50 was determined as 0.066 nM.

`Cc1nc2nonc2c(N)c1Cc1ccc(C#N)c(Br)c1` [Compound 4.45, 4-(7-Amino-5-methyl-[1,2,5]oxadiazolo[3,4-b]pyridin-6-ylmethyl)-2-bromo-benzonitrile] came in with an IC50 of 0.233 nM.

Regarding `Cc1nc2nonc2c(N)c1Cc1ccc(C#N)c(OCC(F)(F)F)c1` [Compound 21.1, 4-({7-Amino-5-methyl-[1,2,5]oxadiazolo[3,4-b]pyridin-6-yl}methyl)-2-(2,2,2-trifluoroethoxy)benzonitrile], the IC50 amounted to 0.099 nM.

Take `Cc1nc2nonc2c(N)c1Cc1ccc(C#N)c(OCC2(C(F)(F)F)CC2)c1` [Compound 21.7, 4-({7-Amino-5-methyl-[1,2,5]oxadiazolo[3,4-b]pyridin-6-yl}methyl)-2-{[1-(trifluoromethyl)cyclopropyl]methoxy}benzonitrile]: half-maximal inhibition (IC50) required 0.278 nM.

Consider `Nc1c(Cc2ccc(OC(F)(F)F)cc2)c(CF)nc2nonc12` [Compound 11.1, 5-(Fluoromethyl)-6-{[4-(trifluoromethoxy)phenyl]methyl}-[1,2,5]oxadiazolo[3,4-b]pyridin-7-amine], for which the IC50 was 0.068 nM.

As to `Cc1nc2nonc2c(N)c1Cc1ccc(-c2ccnn2C)n2cnnc12` [Compound 12.13, 5-Methyl-6-[5-(2-methyl-2H-pyrazol-3-yl)-[1,2,4]triazolo[4,3-a]pyridin-8-ylmethyl]-[1,2,5]oxadiazolo[3,4-b]pyridin-7-ylamine], it took 2.79 nM to reach half-maximal inhibition (IC50).

`Cc1nc2nonc2c(N)c1Cc1ccc(C(=O)NC2CCOC2)cc1` (centres unmarked) [Compound 14.12, 4-({7-Amino-5-methyl-[1,2,5]oxadiazolo[3,4-b]pyridin-6-yl}methyl)-N-(oxolan-3-yl)benzamide] displayed an IC50 of 3.02 nM.

In turn, `COc1ccc(Cc2c(C)nc3nonc3c2N)cn1` [Compound 4.3, 6-[(6-Methoxypyridin-3-yl)methyl]-5-methyl-[1,2,5]oxadiazolo[3,4-b]pyridin-7-amine] came in with a concentration for half-maximal inhibition (IC50) of 1.58 nM.

Compound `COc1cc(OC(F)(F)F)ccc1Cc1c(C)nc2nonc2c1N` [Compound 2.1, 6-{[2-Methoxy-4-(trifluoromethoxy)phenyl]methyl}-5-methyl-[1,2,5]oxadiazolo[3,4-b]pyridin-7-amine] gave an IC50 of 0.092 nM. Against the preceding compound, the IC50 is about 17-fold lower.

The compound `Cc1nc2nonc2c(N)c1Cc1ccc(OC(F)(F)F)nc1` [Compound 4.58, 5-Methyl-6-{[6-(trifluoromethoxy)pyridin-3-yl]methyl}-[1,2,5]oxadiazolo[3,4-b]pyridin-7-amine] returned an IC50 of 0.752 nM.

In turn, `Cc1nc2nonc2c(N)c1Cc1cccc(OCF)c1` [Compound 8.1, 6-{[3-(Fluoromethoxy)phenyl]methyl}-5-methyl-[1,2,5]oxadiazolo[3,4-b]pyridin-7-amine] showed an IC50 of 1.09 nM.

Take `Cc1nc2nonc2c(N)c1Cc1ccc(C(=O)NCC2(C)COC2)cc1` [Compound 14.13, 4-({7-Amino-5-methyl-[1,2,5]oxadiazolo[3,4-b]pyridin-6-yl}methyl)-N-[(3-methyloxetan-3-yl)methyl]benzamide]: the IC50 was determined as 4.99 nM.

Compound `Cc1nc2nonc2c(N)c1Cc1ccc(C(C)(C)C(=O)O)nc1` [Compound 19.4, 2-[5-({7-Amino-5-methyl-[1,2,5]oxadiazolo[3,4-b]pyridin-6-yl}methyl)pyridin-2-yl]-2-methylpropanoic Acid] had an IC50 of 0.534 nM.

As for `Cc1nc2nonc2c(N)c1Cc1cccn2c(C3CC3)nnc12` [Compound 4.13, 6-({3-Cyclopropyl-[1,2,4]triazolo[4,3-a]pyridin-8-yl}methyl)-5-methyl-[1,2,5]oxadiazolo[3,4-b]pyridin-7-amine], the IC50 was found to be 0.89 nM.

Consider `Cc1nc2nonc2c(N)c1Cc1ccc(C#N)nc1` [Compound 4.6, 5-({7-Amino-5-methyl-[1,2,5]oxadiazolo[3,4-b]pyridin-6-yl}methyl)pyridine-2-carbonitrile], for which the concentration for half-maximal inhibition (IC50) worked out at 3.1 nM.
